Consider 24 compounds from patent publication US8680159B2, “Bradykinin 1 receptor modulating compounds” (Gruenenthal GmbH, priority 2010, dated 2014).

The first assay concerns the target T1, human B1R receptor (CHO K1 cells stably transfected with the human B1R gene) (Homo sapiens, UniProt P46663).
T1 construct: expressed in transfected cells; host or cells: CHO K1 cells (Chinese hamster ovary), stably transfected
T1 sequence (P46663 1-353): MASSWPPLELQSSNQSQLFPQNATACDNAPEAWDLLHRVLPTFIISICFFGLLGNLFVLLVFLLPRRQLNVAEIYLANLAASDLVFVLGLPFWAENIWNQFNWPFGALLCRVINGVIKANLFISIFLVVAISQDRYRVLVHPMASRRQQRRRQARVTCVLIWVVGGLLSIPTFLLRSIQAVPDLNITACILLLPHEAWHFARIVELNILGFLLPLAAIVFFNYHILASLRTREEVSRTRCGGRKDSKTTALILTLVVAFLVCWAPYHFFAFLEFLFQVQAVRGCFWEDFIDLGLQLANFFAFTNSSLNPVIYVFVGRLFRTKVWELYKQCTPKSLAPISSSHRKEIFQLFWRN
In words: Functional study on the bradykinin receptor 1 (B1R), Ca2+ fluorescence (Fluo-4) FLIPR/Novostar assay, hB1R cells. It counts as cell-based. To be noted: CHO-K1, read-out: % Inhibition (h-B1R) at 10 μM. The procedure, abridged: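 Stably transfected CHO K1 cells carrying human or rat B1R were Fluo-4 loaded and Ca2+ fluorescence read by FLIPR or Novostar. Compounds were added first at 10 μM for % activation, then the EC80 agonist was applied after 6-20 min (human: Lys-Des-Arg9-bradykinin; rat: Des-Arg9-bradykinin). % inhibition is relative to maximum achievable inhibition, and IC50 comes from concentration series.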
Broadly, the inhibition is the relative decrease from the control value, in per cent. Turning to `CN(C(=O)c1ccc2c(c1)C(NC(=O)c1ccccc1Cl)CC2)C1CCN(c2ccc3cnccc3c2)CC1` (stereo not drawn) [CC_H-75, 3-[(2-Chloro-benzoyl)amino]-N-(1-isoquinolin-6-yl-piperidin-4-yl)-N-methyl-2,3-dihydro-1H-indene-5-carboxylic acid amide], the inhibition at 10 µM stood at 99%. Same read-out and setting: with `Cc1cccc(C)c1C(=O)NC1CCc2ccc(C(=O)NCCC3CCN(c4ccncc4)CC3)cc21` (stereo not drawn) [CC_H-105, 3-[(2,6-Dimethyl-benzoyl)amino]-N-[2-(1-pyridin-4-yl-piperidin-4-yl)-ethyl]-2,3-dihydro-1H-indene-5-carboxylic acid amide] the figure was 90%. `CC(C)CC(=O)NC1CCCc2ccc(C(=O)N(C)C3CCN(c4ccncc4)CC3)cc21` (stereo not drawn) [CC_H-135, N-Methyl-8-(3-methyl-butanoylamino)-N-(1-pyridin-4-yl-piperidin-4-yl)-5,6,7,8-tetrahydro-naphthalene-2-carboxylic acid amide]: the inhibition at 10 µM was found to be 100%.

Regarding `Cc1cc(N2CCC(N(C)C(=O)c3ccc4c(c3)C(N(C)C(=O)c3c(Cl)cccc3C(F)(F)F)CC4)CC2)cc(C)n1` (stereo not drawn) [CC_H-108, 3-[[2-Chloro-6-(trifluoromethyl)-benzoyl]-methyl-amino]-N-[1-(2,6-dimethyl-pyridin-4-yl)-piperidin-4-yl]-N-methyl-2,3-dihydro-1H-indene-5-carboxylic acid amide], the inhibition at 10 µM came out at 91%. For the compound `CN(C(=O)c1ccc2c(c1)C(NC(=O)c1cncnc1)CCO2)C1CCN(c2ccncc2)CC1` (stereo not drawn) [CC_H-124, N-[6-[Methyl-(1-pyridin-4-yl-piperidin-4-yl)-carbamoyl]-3,4-dihydro-2H-chromen-4-yl]-pyrimidine-5-carboxylic acid amide], the inhibition at 10 µM worked out at 68%. Same read-out and setting: with `CN(C(=O)c1ccc2c(c1)C(NS(=O)(=O)Cc1ccccc1C(F)(F)F)CC2)C1CCN(c2ccncc2)CC1` (stereo not drawn) [CC_H-141, N-Methyl-N-(1-pyridin-4-yl-piperidin-4-yl)-3-[[[2-(trifluoromethyl)-phenyl]-methylsulfonyl]amino]-2,3-dihydro-1H-indene-5-carboxylic acid amide] the figure was 100%; with `CN(C(=O)c1ccc2c(c1)C(NC(=O)c1cc(F)ccc1Cl)CC2)C1CCN(c2ccc3cnccc3c2)CC1` (stereo not drawn) [CC_H-76, 3-[(2-Chloro-5-fluoro-benzoyl)amino]-N-(1-isoquinolin-6-yl-piperidin-4-yl)-N-methyl-2,3-dihydro-1H-indene-5-carboxylic acid amide], 100%; with `Cc1cc(N2CCC(N(C)C(=O)c3ccc4c(c3)C(N(C)C(=O)c3cccc(Cl)c3Cl)CC4)CC2)cc(C)n1` (stereo not drawn) [CC_H-83, 3-[(2,3-Dichloro-benzoyl)-methyl-amino]-N-[1-(2,6-dimethyl-pyridin-4-yl)-piperidin-4-yl]-N-methyl-2,3-dihydro-1H-indene-5-carboxylic acid amide], 100%. As to `CN(C(=O)c1ccc2c(c1)CCC2NS(=O)(=O)c1c(Cl)cccc1C(F)(F)F)C1CCN(c2ccncc2)CC1` (stereo not drawn) [CC_H-143, 1-[[[2-Chloro-6-(trifluoromethyl)-phenyl]sulfonyl]amino]-N-methyl-N-(1-pyridin-4-yl-piperidin-4-yl)-2,3-dihydro-1H-indene-5-carboxylic acid amide], the inhibition at 10 µM was found to be 100%. As to `CN(C(=O)NC1CCCc2ccc(C(=O)N(C)C3CCN(c4ccncc4)CC3)cc21)c1ccccc1Cl` (stereo not drawn) [CC_H-94, 8-[[(2-Chlorophenyl)-methyl-carbamoyl]amino]-N-methyl-N-(1-pyridin-4-yl-piperidin-4-yl)-5,6,7,8-tetrahydro-naphthalene-2-carboxylic acid amide], the inhibition at 10 µM amounted to 100%. `Cc1cc(N2CCC(N(C)C(=O)c3ccc4c(c3)C(NC(=O)N(C)c3ccccc3Cl)CC4)CC2)cc(C)n1` (stereo not drawn) [CC_H-142, 3-[[(2-Chlorophenyl)-methyl-carbamoyl]amino]-N-[1-(2,6-dimethyl-pyridin-4-yl)-piperidin-4-yl]-N-methyl-2,3-dihydro-1H-indene-5-carboxylic acid amide]: the inhibition at 10 µM stood at 100%.

On to `O=C(NCCC1CCN(c2ccncc2)CC1)c1ccc2c(c1)C(NC(=O)C1CCCCC1)CC2` (stereo not drawn) [CC_H-116, 3-(Cyclohexanecarbonylamino)-N-[2-(1-pyridin-4-yl-piperidin-4-yl)-ethyl]-2,3-dihydro-1H-indene-5-carboxylic acid amide], for which the inhibition at 10 µM was found to be 92%. Take `Cc1cc(N2CCC(N(C)C(=O)c3ccc4c(c3)C(NC(=O)c3cncnc3)CC4)CC2)cc(C)n1` (stereo not drawn) [CC_H-118, N-[6-[[1-(2,6-Dimethyl-pyridin-4-yl)-piperidin-4-yl]-methyl-carbamoyl]-2,3-dihydro-1H-inden-1-yl]-pyrimidine-5-carboxylic acid amide]: the inhibition at 10 µM is 89%. With `Cc1cccc(C)c1C(=O)NC1CCOc2ccc(C(=O)N(C)C3CCN(c4ccncc4)CC3)cc21` (stereo not drawn) [CC_H-71, 4-[(2,6-Dimethyl-benzoyl)amino]-N-methyl-N-(1-pyridin-4-yl-piperidin-4-yl)-3,4-dihydro-2H-chromene-6-carboxylic acid amide], the inhibition at 10 µM was determined as 84%. Turning to `CN(C(=O)c1ccc2c(c1)C(NC(=O)C(C)(C)c1ccccc1Cl)CC2)C1CCN(c2ccc3cnccc3c2)CC1` (stereo not drawn) [CC_H-98, 3-[[2-(2-Chlorophenyl)-2-methyl-propanoyl]amino]-N-(1-isoquinolin-6-yl-piperidin-4-yl)-N-methyl-2,3-dihydro-1H-indene-5-carboxylic acid amide], the inhibition at 10 µM came to 92%. As for `CN(C(=O)c1ccc2c(c1)CCC2NC(=O)C(C)(C)c1ccccc1Cl)C1CCN(c2ccncc2)CC1` (stereo not drawn) [CC_H-100, 1-[[2-(2-Chlorophenyl)-2-methyl-propanoyl]amino]-N-methyl-N-(1-pyridin-4-yl-piperidin-4-yl)-2,3-dihydro-1H-indene-5-carboxylic acid amide], the inhibition at 10 µM came out at 77%.

Still in this assay, the particulars now being: CHO-K1, read-out: % inhibition (human B1R) at 10 μM.
Turning to `COc1cc(C(=O)N[C@@H]2CCc3ccc(C(=O)N(C)C4CCN(c5ccnc(C)c5)CC4)cc32)on1` [Example H-225, 3-Methoxy-N-[(1R)-6-[methyl-[1-(2-methyl-pyridin-4-yl)-piperidin-4-yl]-carbamoyl]-2,3-dihydro-1H-inden-1-yl]-isoxazole-5-carboxylic acid amide], the inhibition at 10 µM worked out at 100%. Consider `Cc1cc(N2CCC(N(C)C(=O)c3cc4c(cc3F)CC[C@H]4N(C(=O)c3cccnc3C(F)(F)F)C(C)C)CC2)nc(C)n1` [Example H-209, N-[(1R)-6-[[1-(2,6-Dimethyl-pyrimidin-4-yl)-piperidin-4-yl]-metyl-carbamoyl]-5-fluoro-2,3-dihydro-1H-inden-1-yl]-N-isopropyl-2-(trifluoromethyl)-pyridine-3-carboxylic acid amide], for which the inhibition at 10 µM stood at 10%. For `CN(C(=O)c1ccc2c(c1)[C@H](NC(=O)c1ccccc1Cl)CC2)C1CCN(c2ccnc(N)n2)CC1` [Example H-244, (3R)-N-[1-(2-Amino-pyrimidin-4-yl)-piperidin-4-yl]-3-[(2-chloro-benzoyl)amino]-N-methyl-2,3-dihydro-1H-indene-5-carboxylic acid amide], the inhibition at 10 µM stood at 100%. With `Cc1cc(N2CCC(N(C)C(=O)c3ccc4c(c3)[C@H](N(C)C(=O)C3CCCC3)CC4)CC2)nc(C)n1` [Example H-230, (3R)-3-(Cyclopentanecarbonyl-methyl-amino)-N-[1-(2,6-dimethyl-pyrimidin-4-yl)-piperidin-4-yl]-N-methyl-2,3-dihydro-1H-indene-5-carboxylic acid amide], the inhibition at 10 µM was 98%.

Take `Cc1cc(N2CCC(N(C)C(=O)c3ccc4c(c3)[C@H](NC(=O)CC(C)C(C)C)CC4)CC2)ccn1` (stereo partly drawn) [Example H-222, (3R)-3-(3,4-Dimethyl-pentanoylamino)-N-methyl-N-[1-(2-methyl-pyridin-4-yl)-piperidin-4-yl]-2,3-dihydro-1H-indene-5-carboxylic acid amide]: the inhibition at 10 µM was determined as 99%. As to `Cc1cc(N2CCC(N(C)C(=O)c3ccc4c(c3)[C@H](N(C)C(=O)c3cc(F)ccc3Cl)CC4)CC2)nc(C)n1` [Example H-210, (3R)-3-[(2-Chloro-5-fluoro-benzoyl)-methyl-amino]-N-[1-(2,6 dimethyl-pyrimidin-4-yl)-piperidin-4-yl]-N-methyl-2,3-dihydro-1H-indene-5-carboxylic acid amide], the inhibition at 10 µM is 99%. Consider `CCN(C(=O)c1cccnc1C(F)(F)F)[C@@H]1CCc2ccc(C(=O)N(C)C3CCN(c4cc(C)nc(C)n4)CC3)cc21` [Example H-174, N-[(1R)-6-[[1-(2,6-Dimethyl-pyrimidin-4-yl)-piperidin-4-yl]-methyl-carbamoyl]-2,3-dihydro-1H-inden-1-yl]-N-ethyl-2-(trifluoromethyl)-pyridine-3-carboxylic acid amide], for which the inhibition at 10 µM worked out at 100%. With `Cc1cc(N2CCC(N(C)C(=O)c3ccc4c(c3)[C@H](NC(=O)CC(C)C(C)C)CC4)CC2)nc(C)n1` (stereo partly drawn) [Example H-223, (3R)-3-(3,4-Dimethyl-pentanoylamino)-N-[1-(2,6-dimethyl-pyrimidin-4-yl)-piperidin-4-y]-N-methyl-2,3-dihydro-1H-indene-5-carboxylic acid amide], the inhibition at 10 µM came out at 96%.
